Laboratory results taken from US20050107343A1, “Pyrrolopyrimidines and related analogs as HSP90-inhibitors” (Conforma Therapeutics Corporation, priority 2003, published 2005).

Key:
HER2/Neu protein = test: HER2 degradation assay; assay type: cell-based; settings: Homo sapiens; 50% degradation of HER2/Neu protein, MCF7 cells, 16 h
Protocol: MCF7 breast carcinoma cells (ATCC) were grown in Dulbecco's modified Eagle's medium (DMEM) containing 10% fetal bovine serum (FBS) and 10 mM HEPES, and plated in 24 well plates (50% confluent). Twenty-four hrs later (cells are 65-70% confluent), test compounds were added and incubated overnight for 16 h. […] The wells were washed with 1 mL phosphate buffered saline (PBS), and 200 μL trypsin was added to each well. After trypsinization was complete, 50 μL of FBS was added to each well. Then 200 μL cells was transferred to 96 well plates. The cells were pipetted up and down to obtain a single cell suspension. The plates were centrifuged at 2,500 rpm for 1 min using a Sorvall Legend RT™ tabletop centrifuge (Kendro Laboratory Products, Asheville, N.C.). The cells were then washed once in PBS containing 0.2% BSA and 0.2% sodium azide (BA buffer). Phycoerythrin (PE) conjugated anti HER2/Neu antibody (Becton Dickinson, #340552), or PE conjugated anti-keyhole limpet hemocyanin [KLH] (Becton Dickinson, #340761) control antibody was added at a dilution of 1:20 and 1:40 respectively (final concentration was 1 μg/mL) and the cells were pipeted up and down to form a single cell suspension, and incubated for 15 mins. The cells were washed twice with 200 μL BA buffer, and resuspended in 200 μL BA buffer, and transferred to FACSCAN tubes with an additional 250 μL BA buffer. Samples were analyzed using a FACSCalibur™ flow cytometer (Becton Dickinson, San Jose, Calif.) equipped with Argon-ion laser that emits 15 mW of 488 nm light for excitation of the PE fluorochrome. 10,000 events were collected per sample. A fluorescence histogram was generated and the mean fluorescence intensity (MFI) of each sample was determined using Celiquest software. The background was defined as the MFI generated from cells incubated with control IgG-PE, and was subtracted from each sample stained with the HER2/Neu antibody. Cells incubated with DMSO were used as untreated controls since the compounds were resuspended in DMSO. Percent degradation of HER2 was calculated as follows: % HER2 degraded=[(MF1 untreated cells−MF1 treated cells)/MF1 untreated cell]×100
IC50 is defined as the concentration at which there was 50% degradation of the HER2/Neu protein.

[1] = tested on: MCF7 breast carcinoma cells; test: MTS assay; assay type: cell-based; settings: Homo sapiens, 50% reduction in viable cell number
Protocol: MTS assays measure the cytotoxicity of geldanamycin derivatives. MTS (3-(4,5-dimethylthiazol-2-yl)-5-(3-carboxymethoxyphenyl)-2-(4-sulfophenyl)-2H-tetrazolium) is a tetrazolium dye that is converted to a formazan product by dehydrogenase enzymes of metabolically active cells (Corey, A. et al. “Use of an aqueous soluble tetrazolium/formazan assay for cell growth assays in culture,” Cancer Commun. 1991, 3, 207-212). Cells were seeded in 96 well plates at 2000 cells/well and allowed to adhere overnight in Dulbecco's modified Eagle's medium supplemented with 10% fetal bovine serum. The final culture volume was 100 μl. Viable cell number was determined by using the Celltiter 96 AQueous Non-radioactive Cell Proliferation Assay (Promega, Madison Wis.). The MTS /PMS (phenazine methosulfate) solution was mixed at a ratio of 20:1, and 20 μL was added per well to 100 μl of culture medium. After 2-4 hours, the formation of the formazan product was measured at 490 nm absorbance using a multiwell plate spectrophotometer. Background was determined by measuring the Abs 490 nm of cell culture medium and MTS-PMS in the absence of cells and was subtracted from all values. Percent viable cells was calculated as follows: % viable cells=(Abs at 490 nm treated cells/Abs at 490 nm untreated cells)×100
The effect of selected compounds of the invention on MCF7 breast carcinoma cells according to the MTS assay is summarized in Table 2. IC50 was defined as the concentration of the compound which gave rise to 50% reduction in viable cell number.

[2] = tested on: rHSP90 in the MCF7 cell lysates; test: Cell lysate binding assay; settings: 50% inhibition of biotin-GM binding to rHSP90 in MCF7 cell lysates
Protocol: Cell Lysate Binding Assay
MCF7 breast carcinoma cell lysates were prepared by douncing in lysing buffer (20 mM HEPES, pH 7.3, 1 mM EDTA, 5 mM MgCl2, 100 mM KCl), and then incubated with or without test compound for 30 mins at 4° C., followed by incubation with biotin-GM linked to BioMag™ streptavidin magnetic beads (Qiagen) for 1 hr at 4° C. The tubes were placed on a magnetic rack, and the unbound supernatant removed. The magnetic beads were washed three times in lysis buffer and boiled for 5 mins at 95° C. in SDS-PAGE sample buffer. Samples were analyzed on SDS protein gels, and Western blots were done for rHSP90. Bands in the Western Blots were quantitated using the Bio-rad Fluor-S MultiImager, and the % inhibition of binding of rHSP90 to the biotin-GM was calculated.
The IC50 reported is the concentration of test compound needed to achieve 50% inhibition of the biotin-GM binding to rHSP90 in the MCF7 cell lysates.

SMILES | IC50 (HER2/Neu protein) | IC50 [1] | IC50 [2]
COc1c(C)cnc(Cn2cc(C(C)C)c3c(Cl)nc(N)nc32)c1C [Example 43, 4-Chloro-5-isopropyl-7-(4-methoxy-3,5-dimethyl-pyridin-2-ylmethyl)-7H-pyrrolo[2,3-d]pyrimidin-2-ylamine] | 130 nM | – | –
COc1c(C)c(Cl)nc(Cn2ccc3c(Cl)nc(N)nc32)c1C [Example 10, 4-Chloro-7-(6-chloro-4-methoxy-3,5-dimethyl-pyridin-2-ylmethyl)-7H-pyrrolo [2,3-d]pyrimidin-2-ylamine] | 250 nM | 600 nM | –
Cc1c[n+]([O-])c(Cn2ccc3c(Br)nc(N)nc32)c(C)c1Cl [Example 22, 4-Bromo-7-(4-chloro-3,5-dimethyl-1-oxy-pyridin-2-ylmethyl)-7H-pyrrolo[2,3-d]pyrimidin-2-ylamine] | 65 nM | 1000 nM | –
Cc1cnc(Cn2ccc3c(Cl)nc(N)nc32)c(C)c1Cl [Example 11, 4-Chloro-7-(4-chloro-3,5-dimethyl-pyridin-2-ylmethyl)-7H-pyrrolo[2,3-d]pyrimidin-2-ylamine] | 80 nM | 200 nM | 90 nM
Cc1c[n+]([O-])c(Cn2ccc3c(Cl)nc(N)nc32)c(C)c1Br [Example 15, 7-(4-Bromo-3,5-dimethyl-1-oxy-pyridin-2-ylmethyl)-4-chloro-7H-pyrrolo[2,3-d]pyrimidin-2-ylamine] | 15 nM | 23 nM | 30 nM
Cc1cnc(Cn2ccc3c(Br)nc(N)nc32)c(C)c1Br [Example 23, 4-Bromo-7-(4-bromo-3,5-dimethyl-pyridin-2-ylmethyl)-7H-pyrrolo[2,3-d]pyrimidin-2-ylamine] | 130 nM | > 10000 nM | –
Cc1cnc(CN2C(=O)Cc3c(Cl)nc(N)nc32)c(C)c1Cl [Example 48, 2-Amino-4-chloro-7-(4-chloro-3,5-dimethyl-pyridin-2-ylmethyl)-5,7-dihydro-pyrrolo[2,3-d]pyrimidin-6-one] | 1500 nM | – | –
COc1cc(CN2C(=O)Cc3c(Cl)nc(N)nc32)c(Br)c(OC)c1OC [Example 52, 2-Amino-4-chloro-7-(2-bromo-3,4,5-trimethoxy-benzyl)-5,7-dihydro-pyrrolo[2,3-d]pyrimidin-6-one] | 400 nM | 10000 nM | –
Cc1c[n+]([O-])c(Cn2cc(C(C)C)c3c(Cl)nc(N)nc32)c(C)c1Cl [Example 45] | 20 nM | – | –
Cc1cnc(Cn2ccc3c(Br)nc(N)nc32)c(C)c1Cl [Example 21, 4-Bromo-7-(4-chloro-3,5-dimethyl-pyridin-2-ylmethyl)-7H-pyrrolo[2,3-d]pyrimidin-2-ylamine] | 170 nM | > 10000 nM | –
COc1c(C)c[n+]([O-])c(CN2C(=O)Cc3c(Cl)nc(N)nc32)c1C [Example 49, 2-Amino-4-chloro-7-(3,5-dimethyl-4-methoxy-1-oxy-pyridin-2-ylmethyl)-5,7-dihydro-pyrrolo[2,3-d]pyrimidin-6-one] | 180 nM | 900 nM | –

More lines, in order of falling IC50 (HER2/Neu protein), values ahead:

IC50 (HER2/Neu protein) | IC50 [1] | IC50 [2] | SMILES
450 nM | – | – | COc1c(C)cnc(CN2C(=O)Cc3c(Cl)nc(N)nc32)c1C
150 nM | > 10000 nM | – | COc1c(C)cnc(Cn2ccc3c(Br)nc(N)nc32)c1C [Example 25, 4-Bromo-7-(4-methoxy-3,5-dimethyl-pyridin-2-ylmethyl)-7H-pyrrolo[2,3-d]pyrimidin-2-ylamine]
95 nM | 300 nM | 150 nM | COc1c(C)cnc(Cn2ccc3c(Cl)nc(N)nc32)c1C [Example 5, 4-Chloro-7-(4-methoxy-3,5-dimethyl-pyridin-2-ylmethyl)-7H-pyrrolo[2,3-d]pyrimidin-2-ylamine]
50 nM | 1000 nM | 90 nM | Cc1cnc(Cn2ccc3c(Cl)nc(N)nc32)c(C)c1Br [Example 13, 7-(4-Bromo-3,5-dimethyl-pyridin-2-ylmethyl)-4-chloro-7H-pyrrolo[2,3-d]pyrimidin-2-ylamine]
42 nM | 1000 nM | – | COc1c(C)c[n+]([O-])c(Cn2ccc3c(Br)nc(N)nc32)c1C [Example 20, 4-Bromo-7-(4-methoxy-3,5-dimethyl-1-oxy-pyridin-2-ylmethyl)-7H-pyrrolo[2,3-d]pyrimidin-2-ylamine]
38 nM | 1000 nM | 50 nM | Cc1c[n+]([O-])c(Cn2ccc3c(Cl)nc(N)nc32)c(C)c1Cl [Example 14, 4-Chloro-7-(4-chloro-3,5-dimethyl-1-oxy-pyridin-2-ylmethyl)-7H-pyrrolo[2,3-d]pyrimidin-2-ylamine]
25 nM | 300 nM | – | Cc1c[n+]([O-])c(Cn2ccc3c(Br)nc(N)nc32)c(C)c1Br [Example 24, 4-Bromo-7-(4-bromo-3,5-dimethyl-1-oxy-pyridin-2-ylmethyl)-7H-pyrrolo[2,3-d]pyrimidin-2-ylamine]
23 nM | 100 nM | – | COc1c(C)c[n+]([O-])c(Cn2ccc3c(Cl)nc(N)nc32)c1C [Example 8, 4-Chloro-7-(4-methoxy-3,5-dimethyl-1-oxy-pyridin-2-ylmethyl)-7H-pyrrolo[2,3-d]pyrimidin-2-ylamine]
